Experimental data from patent US20180353461A1, “USE OF CANNABINOIDS AS CERAMIDE-GENERATING ANTICANCER AGENTS IN TUMORS OF THE HEMATOPOIETIC AND LYMPHOID TISSUES” (priority 2014, published 2018).

Assays:
U266 cells = assay: SPT expression, ceramide staining and SPT inhibition in U266 cells; format: cell-based, human; conditions: U266, co-incubation with cannabinoid, 6 hours
Procedure: Except if otherwise indicated, for the viability assays primary cells were incubated 18 hours, with vehicle (with <0.15% DMSO) or cannabinoid. Meanwhile, the time course assays cells were performed at 0, 2, 6, 18 and 24 h. For the analysis of SPT activity, cells were co-incubated for the first 6 hours with the SPT inhibitor, myriocin, and the cannabinoid, WIN-55 or JWH-133.
Samples (15-25 ug/lane) were subjected to SDS/PAGE in pre-cast polyacrylamide gels AnykD (Bio-Rad Laboratories, Hercules, CA, USA) under reducing and denaturing conditions. Electrophoretic run was performed at a constant current of 15 mA per gel in a Mini-Protean® Tetra Cell (Bio-Rad Laboratories). Once proteins were separated by electrophoresis, were transferred onto PVDF membranes using Trans-Blot® Turbo™ System (Bio-Rad Laboratories). Electrotransference was conducted at constant amperage of 1.2 mA and at up to 25 V of voltage. The blotted membranes were then blocked with 2% bovine serum albumin [(BSA), Santa Cruz Biotechnology] in Tween-Tris buffer saline (TTBS) for 30 min with gentle agitation, and incubated overnight at 4° C. with corresponding primary antibody in TTBS. After twice washing with TTBS, membranes were incubated for 1-2 h at room temperature with suitable conjugated-HRP secondary antibody, and subjected to chemiluminescence detection using Western Blotting Luminol Reagent (Santa Cruz Biotechnology). Loading controls were carried out with an anti-beta-actin and anti-beta-tubulin antibodies (Sigma-Aldrich). Blots were captured using a digital imaging system ImageQuant LAS 4000 (Amersham GE Healthcare) and transferred to a digital image processing software to analyze (Adobe Photoshop CS2, version 9.0., Adobe Systems Inc., San Jose, Calif.).
After cannabinoids and/or antagonists or SPT inhibitor treatment, primary cells and cell lines were washed with PBS, collected and placed on slides (Menzel-Glaser, Thermo Fisher Scientific). Cells were fixed in cold 4% paraformaldehyde for 10 min, treated with sodium borohydride and, permeabilized in 0.02% Triton X-100 in PBS with 10% normal donkey serum for blocking. Then, cells were incubated with the anti-CB1 or anti-CB2 receptor antibodies, anti-active-caspase3, anti-ceramide in blocking buffer overnight at 4° C. in a humid chamber (Simport, Beloeil, QC, Canada). After washing with PBS, samples were further incubated for 90 min with Alexa 647- or Alexa 488—conjugated donkey secondary antibody. After twice washing, first with PBS and then with 50 mM Tris-HCl (pH 7.4), and were dipped in a solution of Sudan Black B (Sigma-Aldrich) in 70% methanol for 5 min. After immunocytochemistry, slides were mounted using Fluoromount Aqueous Mounting Medium (Sigma-Aldrich). Preparations were examined with an Olympus BX-61 microscope (Olympus, Hamburg, Germany) equipped with appropriate filters: FITC/Cy2 (green fluorophores) 460-490 nm bandpass excitation filter and 510-550 nm bandpass emission filter; rhodamine/Cy3 (red fluorophores) 541-551 nm excitation and 572-607 nm emission; and Cy5 (deep red fluorophore) 615-635 nm excitation and 655 nm longpass emission. Digital images were acquired with CellSens Dimension Software (Olympus) and contrasted with Photoshop CS2 Software (Adobe Systems Inc). […]
De novo synthesis of ceramides contribute to the apoptotic process triggered by cannabinoids. […] To this end, we analyzed the expression of serine palmitoyltransferase (SPT), the enzyme that catalyses the rate-limiting step of ceramide synthesis de novo. […]

HL60 cells = assay: SPT expression, ceramide staining and SPT inhibition in HL60 cells; format: cell-based, human; conditions: HL60, co-incubation with cannabinoid, 2 hours
Procedure: Extracted proteins (15-25 ug/well) were separated by sodium dodecyl sulfate-polyacrylamide gel electrophoresis (SDS/PAGE) in pre-cast polyacrylamide gels AnykD (Bio-Rad Laboratories, Hercules, Calif., USA) under reducing and denaturing conditions. Electrophoretic run was performed at a constant current of 15 mA per gel in a Mini-Protean® Tetra Cell (Bio-Rad Laboratories) and were electrophoretically transferred onto PVDF membranes using Trans-Blot® Turbo™ System (Bio-Rad Laboratories). Blocking was performed with 2% bovine serum albumin [(BSA), Santa Cruz Biotechnology] in Tween-Tris buffer saline (TTBS). Membranes were incubated overnight at 4° C. with corresponding primary antibody in TTBS.
Cells were grown on glass cover slips (Menzel-Glaser, Thermo Fisher Scientific) in the presence or absence of WIN 55,212-2. The cover slips were then washed twice in phosphate-buffered saline (PBS), and the cells were fixed in cold 4% paraformaldehyde for 10 min, treated with sodium borohydride and, permeabilized in 0.02% Triton X-100 in PBS with 10% normal donkey serum for blocking. Cell nuclei were stained with diamidino-2-phenylindole [(DAPI), Pierce, Thermo Fisher Scientific)]. Then, cells were incubated with the anti-CB1 or anti-CB2 receptor antibodies or anti-ceramide in blocking buffer overnight at 4° C. in a humid chamber (Simport, Beloeil, QC, Canada). After washing with PBS, samples were further incubated for 90 min with Alexa 647- or Alexa 488-conjugated donkey secondary antibody.
After final washing in PBS, the cover slips were dried and mounted on slides using Fluoromount Aqueous Mounting Medium (Sigma-Aldrich). Changes in the protein expression were visualized by fluorescence microscopy using a specific excitation for each antibody. Digital images were acquired with CellSens Dimension Software (Olympus) and manipulated with Photoshop CS2 Software (Adobe Systems Inc). There was no labeling when the primary antibody was omitted (data not shown).
Additionally, de novo synthesis of ceramides also contribute to the apoptotic process triggered by cannabinoids in AML. We examined whether ceramides participate in the cannabinoid-induced apoptosis in leukemic cells. To this end, we analyzed the expression of serine palmitoyltransferase (SPT), the enzyme that catalyses the rate-limiting step of ceramide synthesis de novo. […] To ensure that this up-regulation of SPT entails an increased of ceramide synthesis, we examined the expression of ceramide by immunohistochemistry. […] Furthermore, to strengthen the engagement of the ceramide in cannabinoid-induced apoptosis, we analyzed the cannabinoid-induce apoptosis after inhibition of ceramide synthesis with Myoricin, a selective SPT inhibitor.

Compound: CCCCCCC(=O)CCCCCC/C=C/C[C@@H](O)[C@H](O)[C@@](N)(CO)C(=O)O [Myoricin]
- fragmentation of PARP induced by cannabinoid, after blockage of ceramide synthesis (U266 cells): abolished, at least in part
- fragmentation of PARP induced by cannabinoid, after blockage of ceramide synthesis (HL60 cells): abolished, at least in part
